Results on 24 compounds are retold here after ChEMBL document CHEMBL3817808, “Enlarging the chemical space of anti-leishmanials: a structureactivity relationship study of peptoids against Leishmania mexicana, a causative agent of cutaneous leishmaniasis” (Medchemcomm, 2016).

Non-standard residues stand in square brackets, D forms with d. Residues, ends and D or L forms follow the SMILES beside them. Gly(Nα-4-Cl-benzyl) = O=C(O)CNCc1ccc(Cl)cc1; N(4-F-Bzl)Gly = O=C(O)CNCc1ccc(F)cc1; Gly(N-(CH2)6NH2) = NCCCCCCNCC(=O)O; Gly(N-2-aminoethyl) = NCCNCC(=O)O; Nspe = C[C@H](NCC(=O)O)c1ccccc1; Nphe = O=C(O)CNCc1ccccc1; Nleu = CC(C)CNCC(=O)O; NPrGly = CCCNCC(=O)O; Nlys = NCCCCNCC(=O)O

Experiment [1] has as its system Leishmania mexicana. Description: Antileishmanial activity against axenic amastigote form of Leishmania mexicana MNYC/BZ/62/M379 assessed as parasite viability measured after 1 hr by alamarBlue staining based fluorescence analysis. Type of experiment: functional. The settings on record: MNYC/BZ/62/M379, 1 h, read-out: ED50 (the source's name).
Experiment [2] deals with Leishmania mexicana. In words: Antileishmanial activity against Leishmania mexicana MNYC/BZ/62/M379 promastigotes assessed as parasite viability measured after 1 hr by alamarBlue staining based fluorescence analysis. Type of experiment: functional. Particulars: MNYC/BZ/62/M379, 1 h, read-out: ED50 (the source's name). On the technique in general: Resazurin is reduced to fluorescent resorufin, in cell work by metabolically active cells.

As to `C[C@@H](c1ccccc1)N(CC(N)=O)C(=O)CN(C(=O)CN(CCCCCCN)C(=O)CN(C(=O)CN(C(=O)CN(CCCCCCN)C(=O)CN(C(=O)CN(C(=O)CNCCCCCCN)[C@@H](C)c1ccccc1)[C@@H](C)c1ccccc1)[C@@H](C)c1ccccc1)[C@@H](C)c1ccccc1)[C@@H](C)c1ccccc1` (H-[Gly(N-(CH2)6NH2)][Nspe][Nspe][Gly(N-(CH2)6NH2)][Nspe][Nspe][Gly(N-(CH2)6NH2)][Nspe][Nspe]-NH2), the results for the EC50 in experiment [1] and in experiment [2] were greater than 100 µM and 25 µM, respectively.

With `CC(c1ccccc1)N(CC(=O)N(CCCCN)CC(=O)N(CC(=O)N(CC(=O)N(CCCCN)CC(=O)N(CC(=O)N(CC(=O)N(CCCCN)CC(=O)N(CC(=O)N(CC(N)=O)[C@@H](C)c1ccccc1)Cc1ccc(F)cc1)C(C)c1ccccc1)Cc1ccc(F)cc1)C(C)c1ccccc1)Cc1ccc(F)cc1)C(=O)CN(Cc1ccc(F)cc1)C(=O)CNCCCCN` (single isomer, unassigned), the figures for the EC50 in experiment [1] and in experiment [2] were 27 µM and 8 µM, respectively.

Consider `C[C@H](c1ccccc1)N(CC(N)=O)C(=O)CN(C(=O)CN(CCCCN)C(=O)CN(C(=O)CN(C(=O)CN(CCCCN)C(=O)CN(C(=O)CN(C(=O)CNCCCCN)[C@H](C)c1ccccc1)[C@@H](C)c1ccccc1)[C@H](C)c1ccccc1)[C@@H](C)c1ccccc1)[C@H](C)c1ccccc1` (stereo in doubt), for which the EC50 in experiment [1] is greater than 100 µM; in experiment [2], 15 µM.

For the compound `NCCCCNCC(=O)N(CC(=O)N(CC(=O)N(CCCCN)CC(=O)N(CC(=O)N(CC(=O)N(CCCCN)CC(=O)N(CC(=O)N(CC(N)=O)Cc1ccc(F)cc1)Cc1ccc(F)cc1)Cc1ccc(F)cc1)Cc1ccc(F)cc1)Cc1ccc(F)cc1)Cc1ccc(F)cc1` (H-[Nlys][N(4-F-Bzl)Gly][N(4-F-Bzl)Gly][Nlys][N(4-F-Bzl)Gly][N(4-F-Bzl)Gly][Nlys][N(4-F-Bzl)Gly][N(4-F-Bzl)Gly]-NH2), the EC50 is greater than 100 µM in experiment [1] and 19 µM in experiment [2].

As to `NCCCCNCC(=O)N(CC(=O)N(CC(=O)N(CCCCN)CC(=O)N(CC(=O)N(CC(=O)N(CCCCN)CC(=O)N(CC(=O)N(CC(N)=O)Cc1ccc(Cl)cc1)Cc1ccc(Cl)cc1)Cc1ccc(Cl)cc1)Cc1ccc(Cl)cc1)Cc1ccc(Cl)cc1)Cc1ccc(Cl)cc1` (H-[Nlys][Gly(Nα-4-Cl-benzyl)][Gly(Nα-4-Cl-benzyl)][Nlys][Gly(Nα-4-Cl-benzyl)][Gly(Nα-4-Cl-benzyl)][Nlys][Gly(Nα-4-Cl-benzyl)][Gly(Nα-4-Cl-benzyl)]-NH2), the EC50 came to 85 µM in experiment [1] and 22 µM in experiment [2].

As to `NCCCCNCC(=O)N(CC(=O)N(CC(=O)N(CCCCN)CC(=O)N(CC(=O)N(CC(=O)N(CCCCN)CC(=O)N(CC(=O)N(CC(N)=O)Cc1cccc(F)c1)Cc1cccc(F)c1)Cc1cccc(F)c1)Cc1cccc(F)c1)Cc1cccc(F)c1)Cc1cccc(F)c1`, the EC50 in experiment [1] was greater than 100 µM; in experiment [2], 17 µM.

Regarding `CC(C)CN(CC(=O)N(CC(N)=O)[C@@H](C)c1ccccc1)C(=O)CN(CCCCN)C(=O)CN(C(=O)CN(CC(C)C)C(=O)CNCCCCN)[C@@H](C)c1ccccc1` (H-[Nlys][Nleu][Nspe][Nlys][Nleu][Nspe]-NH2), the EC50 in experiment [1] and in experiment [2] was greater than 100 µM in each case.

Take `C[C@@H](c1ccccc1)N(CC(N)=O)C(=O)CN(Cc1ccc(F)cc1)C(=O)CN(CCCCN)C(=O)CN(C(=O)CN(Cc1ccc(F)cc1)C(=O)CNCCCCN)[C@@H](C)c1ccccc1`: the EC50 in experiment [1] and in experiment [2] was greater than 100 µM throughout.

As for `CCCN(CC(=O)N(CC(N)=O)[C@@H](C)c1ccccc1)C(=O)CN(CCCCN)C(=O)CN(C(=O)CN(CCC)C(=O)CNCCCCN)[C@@H](C)c1ccccc1` (H-[Nlys][NPrGly][Nspe][Nlys][NPrGly][Nspe]-NH2), the EC50 in experiment [1] and in experiment [2] was greater than 100 µM each time.

With `C[C@@H](c1ccccc1)N(CC(N)=O)C(=O)CN(C(=O)CN(CCCCN)C(=O)CN(C(=O)CN(C(=O)CN(CCCCN)C(=O)CN(C(=O)CN(C(=O)CN(CCCCN)C(=O)CN(C(=O)CN(C(=O)CNCCCCN)[C@@H](C)c1ccccc1)[C@@H](C)c1ccccc1)[C@@H](C)c1ccccc1)[C@@H](C)c1ccccc1)[C@@H](C)c1ccccc1)[C@@H](C)c1ccccc1)[C@@H](C)c1ccccc1` (H-[Nlys][Nspe][Nspe][Nlys][Nspe][Nspe][Nlys][Nspe][Nspe][Nlys][Nspe][Nspe]-NH2), the EC50 in experiment [1] was greater than 100 µM; in experiment [2] it was 8 µM.

With `NCCCCNCC(=O)N(CC(=O)N(CC(=O)N(CCCCN)CC(=O)N(CC(=O)N(CC(=O)N(CCCCN)CC(=O)N(CC(=O)N(CC(=O)N(CCCCN)CC(=O)N(CC(=O)N(CC(N)=O)Cc1cccc(F)c1)Cc1cccc(F)c1)Cc1cccc(F)c1)Cc1cccc(F)c1)Cc1cccc(F)c1)Cc1cccc(F)c1)Cc1cccc(F)c1)Cc1cccc(F)c1`, the results for the EC50 in experiment [1] and in experiment [2] were 69 µM and 14 µM, respectively.

In the case of `NCCCCNCC(=O)N(CC(=O)N(CC(=O)N(CCCCN)CC(=O)N(CC(=O)N(CC(=O)N(CCCCN)CC(=O)N(CC(=O)N(CC(=O)N(CCCCN)CC(=O)N(CC(=O)N(CC(N)=O)Cc1ccccc1)Cc1ccccc1)Cc1ccccc1)Cc1ccccc1)Cc1ccccc1)Cc1ccccc1)Cc1ccccc1)Cc1ccccc1` (H-[Nlys][Nphe][Nphe][Nlys][Nphe][Nphe][Nlys][Nphe][Nphe][Nlys][Nphe][Nphe]-NH2), the EC50 was greater than 100 µM in experiment [1] and 15 µM in experiment [2].

`CC(C)CN(CC(=O)N(CC(N)=O)[C@@H](C)c1ccccc1)C(=O)CN(CCCCN)C(=O)CN(C(=O)CN(CC(C)C)C(=O)CN(CCCCN)C(=O)CN(C(=O)CN(CC(C)C)C(=O)CNCCCCN)[C@@H](C)c1ccccc1)[C@@H](C)c1ccccc1` (H-[Nlys][Nleu][Nspe][Nlys][Nleu][Nspe][Nlys][Nleu][Nspe]-NH2): the EC50 in experiment [1] and in experiment [2] was greater than 100 µM throughout.

As for `C[C@@H](c1ccccc1)N(CC(N)=O)C(=O)CN(C(=O)CN(CCCCN)C(=O)CN(C(=O)CN(C(=O)CNCCCCN)[C@@H](C)c1ccccc1)[C@@H](C)c1ccccc1)[C@@H](C)c1ccccc1` (H-[Nlys][Nspe][Nspe][Nlys][Nspe][Nspe]-NH2), the EC50 in experiment [1] and in experiment [2] was greater than 100 µM each time.

With `NCCCCNCC(=O)N(CC(=O)N(CC(=O)N(CCCCN)CC(=O)N(CC(=O)N(CC(N)=O)Cc1cccc(F)c1)Cc1cccc(F)c1)Cc1cccc(F)c1)Cc1cccc(F)c1`, the EC50 in experiment [1] and in experiment [2] was greater than 100 µM each time.

For the compound `COc1ccc(CN(CC(N)=O)C(=O)CN(Cc2ccc(OC)cc2)C(=O)CN(CCCCN)C(=O)CN(Cc2ccc(OC)cc2)C(=O)CN(Cc2ccc(OC)cc2)C(=O)CN(CCCCN)C(=O)CN(Cc2ccc(OC)cc2)C(=O)CN(Cc2ccc(OC)cc2)C(=O)CNCCCCN)cc1`, the EC50 in experiment [1] and in experiment [2] was greater than 100 µM in each case.

As to `CCCN(CC(=O)N(CC(N)=O)[C@@H](C)c1ccccc1)C(=O)CN(CCCCN)C(=O)CN(C(=O)CN(CCC)C(=O)CN(CCCCN)C(=O)CN(C(=O)CN(CCC)C(=O)CNCCCCN)[C@@H](C)c1ccccc1)[C@@H](C)c1ccccc1` (H-[Nlys][NPrGly][Nspe][Nlys][NPrGly][Nspe][Nlys][NPrGly][Nspe]-NH2), the EC50 in experiment [1] and in experiment [2] was greater than 100 µM in each case.

For the compound `C[C@@H](c1ccccc1)N(CC(N)=O)C(=O)CN(C(=O)CN(CCCCN)C(=O)CN(Cc1ccc(F)cc1)C(=O)CN(Cc1ccc(F)cc1)C(=O)CNCCCCN)[C@@H](C)c1ccccc1`, the EC50 in experiment [1] and in experiment [2] was greater than 100 µM each time.

Regarding `CCCCCN(CC(=O)N(CC(=O)N(CC(=O)N(CCCCN)CC(=O)N(CC(=O)N(CC(N)=O)[C@@H](C)c1ccccc1)[C@@H](C)c1ccccc1)C(C)c1ccccc1)[C@@H](C)c1ccccc1)C(=O)CN(C(=O)CN(C(=O)CN(CCCCN)C(=O)CN(C(=O)CN(C(=O)CNCCCCN)[C@@H](C)c1ccccc1)C(C)c1ccccc1)[C@@H](C)c1ccccc1)C(C)c1ccccc1` (single isomer, unassigned), the EC50 in experiment [1] amounted to 15 µM; in experiment [2] it was 10 µM.

In the case of `CC(C)CCN(CC(=O)N(CC(N)=O)C(C)c1ccccc1)C(=O)CN(CCCCN)C(=O)CN(C(=O)CN(CCC(C)C)C(=O)CN(CCCCN)C(=O)CN(C(=O)CN(CCC(C)C)C(=O)CNCCCCN)[C@@H](C)c1ccccc1)[C@@H](C)c1ccccc1` (single isomer, unassigned), the EC50 in experiment [1] is greater than 100 µM; in experiment [2] it was 52 µM.

Regarding `C[C@@H](c1ccccc1)N(CC(N)=O)C(=O)CN(C(=O)CN(CCCCCCN)C(=O)CN(C(=O)CN(C(=O)CNCCCCCCN)[C@@H](C)c1ccccc1)[C@@H](C)c1ccccc1)[C@@H](C)c1ccccc1`, the EC50 in experiment [1] and in experiment [2] was greater than 100 µM in each case.

In the case of `NCCNCC(=O)N(CC(=O)N(CC(=O)N(CCN)CC(=O)N(CC(=O)N(CC(N)=O)Cc1ccccc1)Cc1ccccc1)Cc1ccccc1)Cc1ccccc1` (H-[Gly(N-2-aminoethyl)][Nphe][Nphe][Gly(N-2-aminoethyl)][Nphe][Nphe]-NH2), the EC50 in experiment [1] and in experiment [2] was greater than 100 µM each time.

On to `NCCCCNCC(=O)N(CC(=O)N(CC(=O)N(CCCCN)CC(=O)N(CC(=O)N(CC(=O)N(CCCCN)CC(=O)N(CC(=O)N(CC(=O)N(CCCCN)CC(=O)N(CC(=O)N(CC(N)=O)Cc1ccc(Cl)cc1)Cc1ccc(Cl)cc1)Cc1ccc(Cl)cc1)Cc1ccc(Cl)cc1)Cc1ccc(Cl)cc1)Cc1ccc(Cl)cc1)Cc1ccc(Cl)cc1)Cc1ccc(Cl)cc1` (H-[Nlys][Gly(Nα-4-Cl-benzyl)][Gly(Nα-4-Cl-benzyl)][Nlys][Gly(Nα-4-Cl-benzyl)][Gly(Nα-4-Cl-benzyl)][Nlys][Gly(Nα-4-Cl-benzyl)][Gly(Nα-4-Cl-benzyl)][Nlys][Gly(Nα-4-Cl-benzyl)][Gly(Nα-4-Cl-benzyl)]-NH2), for which the EC50 in experiment [1] was found to be 44 µM; in experiment [2] it was 28 µM.

With `C[C@@H](c1ccccc1)N(CC(N)=O)C(=O)CN(C(=O)CN(CCCCCCN)C(=O)CN(C(=O)CN(C(=O)CN(CCCCCCN)C(=O)CN(C(=O)CN(C(=O)CN(CCCCCCN)C(=O)CN(C(=O)CN(C(=O)CNCCCCCCN)[C@@H](C)c1ccccc1)[C@@H](C)c1ccccc1)[C@@H](C)c1ccccc1)[C@@H](C)c1ccccc1)[C@@H](C)c1ccccc1)[C@@H](C)c1ccccc1)[C@@H](C)c1ccccc1` (H-[Gly(N-(CH2)6NH2)][Nspe][Nspe][Gly(N-(CH2)6NH2)][Nspe][Nspe][Gly(N-(CH2)6NH2)][Nspe][Nspe][Gly(N-(CH2)6NH2)][Nspe][Nspe]-NH2), the EC50 in experiment [1] was greater than 100 µM; in experiment [2] it was 11 µM.
